From ChEMBL document CHEMBL4033607, “Structurally Diverse Alkaloids from the Seeds of Peganum harmala” (J Nat Prod, 2017)

Assays:
Format in all cases: functional, cell-based
HL-60 = assay: Antiproliferative activity against human HL60 cells by tryphan blue assay
PC-3 = assay: Antiproliferative activity against human PC3 cells by MTT assay
SGC-7901 = assay: Antiproliferative activity against human SGC7901 cells by MTT assay

| SMILES | IC50 (HL-60) [µM] | IC50 (PC-3) [µM] | IC50 (SGC-7901) [µM] |
| --- | --- | --- | --- |
| COc1ccc2c3c([nH]c2c1)-c1nc2ccccc2c(=O)n1CC3 | > 10 | > 10 | > 10 |
| COc1ccc2c3c([nH]c2c1)C(=O)NCC3 | > 10 | > 10 | > 10 |
| COc1cc(Cc2cncs2)cc(OC)c1O | > 10 | > 10 | > 10 |
| COc1ccc2c3ccnc4cc(C)c(=O)n(c2c1)c43 | > 10 | > 10 | > 10 |
| COc1ccc2c3c([nH]c2c1)C(c1cnc2ccccc2c1)=NCC3 | > 10 | > 10 | > 10 |
| COc1ccc2c(c1)[nH]c1c(CO)nccc12 | 4.36 |  |  |
| CCc1nccc2c1[nH]c1cc(OC)ccc12 | 9.05 |  |  |
| COC(=O)N1CC[C@@]2(O)c3ccc(OC)cc3N(C(=O)OC)[C@@]12C | > 10 | > 10 | > 10 |
| COC(=O)N1c2cc(OC)ccc2[C@@]2(O)CCN[C@@]12C | > 10 | > 10 | > 10 |
| COC(=O)/C=C1/c2[nH]c3cc(OC)ccc3c2CCN1C(C)=O | > 10 | > 10 | > 10 |
| COc1ccc2c(c1)[nH]c1c(C(N)=O)nccc12 | > 10 | > 10 | > 10 |
| COc1ccc2c3c([nH]c2c1)C(C)=[N+]([O-])CC3 | > 10 | > 10 | > 10 |
| COC(=O)N1CC[C@]2(O)c3ccc(OC)cc3N(C(=O)OC)[C@]12C | > 10 | > 10 | > 10 |
| COc1ccc2c(c1)[nH]c1c(C)[n+]([O-])ccc12 | > 10 | > 10 | > 10 |
| COc1ccc2c3c([nH]c2c1)-c1cc(CO)cc(=O)n1CC3 | > 10 | > 10 | > 10 |
| COc1ccc2c3c([nH]c2c1)-c1cccc(=O)n1CC3 | 9.25 |  |  |
| COC(=O)N1c2cc(OC)ccc2[C@]2(O)CCN[C@]12C | > 10 | > 10 | > 10 |
| COc1cc(Cc2cnc(C)s2)cc(OC)c1O | > 10 | > 10 | > 10 |
| COc1ccc2c(c1)[nH]c1c(C(C)=O)nccc12 [ARENARINE C] | > 10 | > 10 | > 10 |
| COc1ccc2c3c([nH]c2c1)C(C)=NCC3 [HARMALINE] | > 10 | > 10 | > 10 |
| Cc1nccc2c1[nH]c1ccccc12 [HARMAN] | > 10 | > 10 | > 10 |
| COC(=O)c1nccc2c1[nH]c1cc(OC)ccc12 [HARMIC ACID METHYL ESTER] | > 10 | > 10 | > 10 |
